The text below walks through data of patent US9365562B2, “1,3 substituted azetidine PDE10 inhibitors” (Merck Sharp & Dohme Corp., priority 2011, dated 2016).

pKi: −log10 of the molar value.

The target of this experiment is human PDE10A2 (Homo sapiens (Human), UniProt Q9Y233). The experiment is described as follows: PDE10 fluorescence polarization (IMAP FP) inhibition assay. The experiment is classed as biochemical. The note with it: apparent inhibition constant, FAM-labeled cAMP substrate 50 nM, room temperature. As for the experimental part:
The activity of the compounds in accordance with the present invention as PDE10 inhibitors may be readily determined without undue experimentation using a fluorescence polarization (FP) methodology that is well known in the art (Huang, W., et al., J. Biomol Screen, 2002, 7: 215).
In a typical experiment the PDE10 inhibitory activity of the compounds of the present invention was determined in accordance with the following experimental method. PDE10A2 was amplified from human fetal brain cDNA (Clontech, Mountain View, Calif.) using a forward primer corresponding to nucleotides 56-77 of human PDE10A2 (Accession No. AF127480, Genbank Identifier 4894716), containing a Kozak consensus sequence, and a reverse primer corresponding to nucleotides 2406-2413 of human PDE10A2 (Accession No. AF127480, Genbank Identifier 4894716). Amplification with Easy-A polymerase (Stratagene, La Jolla, Calif.) was 95° C. for 2 minutes followed by thirty three cycles of 95° C. for 40 seconds, 55° C. for 30 seconds, and 72° C. for 2 minutes 48 seconds. Final extension was 72° C. for 7 minutes. The PCR product was TA cloned into pcDNA3.2-TOPO (Invitrogen, Carlsbad, Calif.) according to standard protocol. AD293 cells with 70-80% confluency were transiently transfected with human PDE10A2/pcDNA3.2-TOPO using Lipofectamine 2000 according to manufacturer specifications (Invitrogen, Carlsbad, Calif.). Cells were harvested 48 hours post-transfection and lysed by sonication (setting 3, 10×5 sec pulses) in a buffer containing 20 mM HEPES, 1 mM EDTA and protease inhibitor cocktail (Roche). Lysate was collected by centrifugation at 75,000×g for 20 minutes. Supernatant containing the cytoplasmic fraction was used for evaluation of PDE10A2 activity. The fluorescence polarization assay for cyclic nucleotide phosphodiesterases was performed using an IMAP® FP kit supplied by Molecular Devices, Sunnyvale, Calif. (product # R8139). IMAP® technology has been applied previously to phosphodiesterase assays (Huang, W., et al., J. Biomol Screen, 2002, 7: 215). Assays were performed at room temperature in 384-well microtiter plates with an incubation volume of 20.2 μL. Solutions of test compounds were prepared in DMSO and serially diluted with DMSO to yield 8 μL of each of 10 solutions differing by 3-fold in concentration, at 32 serial dilutions per plate. 100% inhibition is determined using a known PDE10 inhibitor, which can be any compound that is present at 5,000 times its Ki value in the assay described as follows, such as papaverine (see Siuciak, et al. Neuropharmacology (2006) 51:386-396; Becker, et al. Behav Brain Res (2008) 186(2):155-60; Threlfell, et al., J Pharmacol Exp Ther (2009) 328(3):785-795), 2-{4-[pyridin-4-yl-1-(2,2,2-trifluoroethyl)-1H-pyrazol-3-yl]phenoxymethyl}quinoline succinic acid or 2-[4-(1-methyl-4-pyridin-4-yl-1H-pyrazol-3-yl)-phenoxymethyl]quinoline succinic acid (see Schmidt, et al. J Pharmacol Exp Ther (2008) 325:681-690; Threlfell, et al., J Pharmacol Exp Ther (2009) 328(3): 785-795). 0% of inhibition is determined by using DMSO (1% final concentrations). A Labcyte Echo 555 (Labcyte, Sunnyvale, Calif.) is used to dispense […] from each well of the titration plate to the 384 well assay plate. A solution of enzyme (1/7000 dilution from aliquots; sufficient to produce 20% substrate conversion) and a separate solution of FAM-labeled cAMP PDE from Molecular Devices (product # R7506), at a final concentration of 50 nM are made in the assay buffer (10 mM Tris HCl, pH 7.2, 10 mM MgCl2, 0.05% NaN3 0.01% Tween-20, and 1 mM DTT). The enzyme is added to the assay plates by the addition of 10 μL of enzyme solution to each well, shaken to mix and incubated at room temperature for 60 minutes. The substrate is then added to the assay plates by the addition of 10 μL of substrate solution to each well, shaken to mix, and incubated at room temperature for 60 minutes. […]

Chain of human PDE10A2 (Q9Y233 267-1055): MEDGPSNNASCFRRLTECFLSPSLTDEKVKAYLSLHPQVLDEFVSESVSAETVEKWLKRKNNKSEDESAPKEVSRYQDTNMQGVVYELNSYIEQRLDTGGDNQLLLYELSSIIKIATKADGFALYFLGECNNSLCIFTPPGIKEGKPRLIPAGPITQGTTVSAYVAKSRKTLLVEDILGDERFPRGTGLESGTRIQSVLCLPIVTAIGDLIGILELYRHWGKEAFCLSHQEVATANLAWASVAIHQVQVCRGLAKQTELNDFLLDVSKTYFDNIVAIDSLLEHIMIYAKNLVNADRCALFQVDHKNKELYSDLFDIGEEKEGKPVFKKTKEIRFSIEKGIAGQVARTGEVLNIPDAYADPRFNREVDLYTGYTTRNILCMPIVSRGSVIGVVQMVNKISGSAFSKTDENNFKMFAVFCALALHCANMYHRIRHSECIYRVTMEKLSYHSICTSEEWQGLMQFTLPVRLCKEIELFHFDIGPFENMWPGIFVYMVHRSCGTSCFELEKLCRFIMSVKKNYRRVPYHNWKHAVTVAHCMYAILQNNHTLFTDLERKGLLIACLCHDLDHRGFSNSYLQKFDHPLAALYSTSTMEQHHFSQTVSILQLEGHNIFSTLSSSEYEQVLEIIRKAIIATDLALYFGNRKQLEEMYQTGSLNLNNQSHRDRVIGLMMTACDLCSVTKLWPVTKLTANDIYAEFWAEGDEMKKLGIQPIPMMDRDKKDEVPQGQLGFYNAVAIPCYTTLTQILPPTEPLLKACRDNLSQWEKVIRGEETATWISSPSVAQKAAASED

Take `Cc1nc(-c2cccnn2)cc(N2CC(c3nc4ccccc4n3C)C2)n1` [Example 106, 1-methyl-2-{1-[2-methyl-6-(pyridazin-3-yl)pyrimidin-4-yl]azetidin-3-yl}-1H-benzimidazole]: the negative logarithm of the Ki (pKi) is 7.96.

Take `CCOCCn1c(C2CN(c3cc(-n4nc(C)nc4C)nc(C)n3)C2)nc2ccccc21` [Example 120, 2-(1-(6-(3,5-dimethyl-1H-1,2,4-triazol-1-yl)-2-methylpyrimidin-4-yl)azetidin-3-yl)-1-(2-ethoxyethyl)-1H-benzo[d]imidazole]: the negative-log Ki (pKi) is 8.07.

Regarding `Cc1nc(-c2ccccn2)cc(N2CC(c3nc4ccccc4n3C)C2)n1` [Example 95, 1-methyl-2-(1-(2-methyl-6-(pyridin-2-yl)pyrimidin-4-yl)azetidin-3-yl)-1H-benzo[d]imidazole], the pKi is 8.74.

With `Cc1noc(COc2nc(N3CC(c4nc5ccccc5n4C)C3)cc(-n3nc(C)nc3C)n2)n1` [Example 75, 5-(((4-(3,5-dimethyl-1H-1,2,4-triazol-1-yl)-6-(3-(1-methyl-1H-benzo[d]imidazol-2-yl)azetidin-1-yl)pyrimidin-2-yl)oxy)methyl)-3-methyl-1,2,4-oxadiazole], the pKi is 9.15.

Regarding `Cc1nc(N2CC(c3nc4ccccc4n3C)C2)cc(-n2nc(C)nc2C2CCCCC2)n1` [Example 45, 2-(1-(6-(5-cyclohexyl-3-methyl-1H-1,2,4-triazol-1-yl)-2-methylpyrimidin-4-yl)azetidin-3-yl)-1-methyl-1H-benzo[d]imidazole], the pKi was 8.70.

For `Cc1nc(N2CC(c3nc4ccccc4n3C)C2)cc(-n2ccc(C(F)(F)F)n2)n1` [Example 11, 1-methyl-2-(1-(2-methyl-6-(3-(trifluoromethyl)-1H-pyrazol-1-yl)pyrimidin-4-yl)azetidin-3-yl)-1H-benzo[d]imidazole], the negative logarithm of the Ki (pKi) is 9.12.

Consider `Cc1nc(C)n(-c2cc(N3CC(c4nc5ccccc5n4C)C3)nc(N3CCCC3)n2)n1` [Example 78, 2-{1-[6-(3,5-dimethyl-1H-1,2,4-triazol-1-yl)-2-(pyrrolidin-1-yl)pyrimidin-4-yl]azetidin-3-yl}-1-methyl-1H-benzimidazole], for which the pKi was 9.54.

Consider `Cc1nc(N2CC(c3nc4ccccc4n3CC#N)C2)cc(-n2nc(C)nc2C)n1` [Example 115, 2-(2-(1-(6-(3,5-dimethyl-1H-1,2,4-triazol-1-yl)-2-methylpyrimidin-4-yl)azetidin-3-yl)-1H-benzo[d]imidazol-1-yl)acetonitrile], for which the negative-log Ki (pKi) was 7.85.

With `Cc1nc(N2CC(c3nc4ccccc4n3C)C2)cc(-n2nc(C)nc2-c2ccccc2F)n1` [Example 51, 2-(1-(6-(5-(2-fluorophenyl)-3-methyl-1H-1,2,4-triazol-1-yl)-2-methylpyrimidin-4-yl)azetidin-3-yl)-1-methyl-1H-benzo[d]imidazole], the negative-log Ki (pKi) was 8.92.

For the compound `Cc1ccc(C2CN(c3cc(-n4nc(C)nc4C)nc(C)n3)C2)nc1` [Example 126, 4-(3,5-Dimethyl-1H-1,2,4-triazol-1-yl)-2-methyl-6-[3-(5-methylpyridin-2-yl)azetidin-1-yl]pyrimidine], the pKi is 6.39.

`Cc1cnn(-c2cc(N3CC(c4nc5ccccc5n4C)C3)nc(C)n2)c1` [Example 2, 1-methyl-2-(1-(2-methyl-6-(4-methyl-1H-pyrazol-1-yl)pyrimidin-4-yl)azetidin-3-yl)-1H-benzo[d]imidazole]: the negative logarithm of the Ki (pKi) is 9.21.

For `COc1ncccc1-c1cc(N2CC(c3nc4ccccc4n3C)C2)nc(C)n1` [Example 82, 2-(1-(6-(2-methoxypyridin-3-yl)-2-methylpyrimidin-4-yl)azetidin-3-yl)-1-methyl-1H-benzo[d]imidazole], the negative logarithm of the Ki (pKi) is 7.57.

Take `Cc1nc(N2CC(c3nc4ccccc4n3C)C2)cc(-n2nc(C)nc2Cc2ccc(F)cc2)n1` [Example 58, 2-(1-(6-(5-(4-fluorobenzyl)-3-methyl-1H-1,2,4-triazol-1-yl)-2-methylpyrimidin-4-yl)azetidin-3-yl)-1-methyl-1H-benzo[d]imidazole]: the pKi was 9.92.
